A value given as a limit tells only on which side of the number the result lay.

Data set [1] has as its system Aβtotal. Kind of data set: Screening for γ-secretase-modulating activity: Aβtotal in supernatant of SKNBE2 cells carrying hAPP 695 wild type (Alphalisa). Format: cell-based, human. The conditions noted are these: overnight incubation, Alphalisa on supernatant. A digest of the protocol: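 SKNBE2 human neuroblastoma cells expressing wild-type hAPP 695 (10^4/well) were incubated overnight at 37 °C, 5% CO2 with compound at several concentrations. Supernatant Aβ42 and Aβtotal measured by AlphaLISA sandwich immunoassays; IC50 from 4-parameter fit of percent of untreated control versus log concentration.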

For data set [2], the system named is Aβtotal. Nature of the data set: In vivo efficacy B-1a/B-2a: brain soluble Aβtotal in non-transgenic rodents, ELISA. The arrangement: species or system mouse. The conditions noted are these: dose 30 mg/kg oral dosing, brain soluble fraction, untreated animals (Ctrl) set at 100; for response vs control in vivo at 30 mg/kg: Mus musculus, po, 4 h, read-out: Aβtotal (% vs Ctrl)_Mean; for Aβtotal (% vs Ctrl)_Mean: 30 mg/kg. The source says: (§1) To determine whether acute administration of an Aβ42 lowering agent would reduce Aβ42 levels in vivo, non-transgenic rodents, e.g. mice or rats were used. Animals treated with the Aβ42 lowering agent were examined and compared to those untreated or treated with vehicle and brain levels of soluble Aβ42 and total Aβ were quantitated by standard techniques, for example, using ELISA. Treatment periods varied from hours (h) to days and were adjusted based on the results of the Aβ42 lowering once a time course of onset of effect could be established.
(§2) A typical protocol for measuring Aβ42 lowering in vivo is shown but it is only one of many variations that could be used to optimize the levels of detectable Aβ. For example, Aβ42 lowering compounds were formulated in 20% of Captisol® (a sulfobutyl ether of β-cyclodextrin) in water or 20% hydroxypropyl β cyclodextrin. The Aβ42 lowering agents were administered as a single oral dose or by any acceptable route of administration to overnight fasted animals. After 4 h, the animals were sacrificed and Aβ42 levels were analysed.
(§3) Blood was collected by decapitation and exsanguinations in EDTA-treated collection tubes. Blood was centrifuged at 1900 g for 10 minutes (min) at 4° C. and the plasma recovered and flash frozen for later analysis. The brain was removed from the cranium and hindbrain. The cerebellum was removed and the left and right hemisphere were separated. The left hemisphere was stored at −18° C. for quantitative analysis of test compound levels. The right hemisphere was rinsed with phosphate-buffered saline (PBS) buffer and immediately frozen on dry ice and stored at −80° C. until homogenization for biochemical assays.
(§4) Mouse brains from non-transgenic animals were resuspended in 8 volumes of 0.4% DEA (diethylamine)/50 mM NaCl containing protease inhibitors (Roche-11873580001 or 04693159001) per gram of tissue, e.g. for 0.158 g brain, add 1.264 mL of 0.4% DEA. All samples were homogenized in the FastPrep-24 system (MP Biomedicals) using lysing matrix D (MPBio #6913-100) at 6 m/s for 20 seconds. Homogenates were centrifuged at 20800×g for 5 min and supernatants collected. Supernatants were centrifuged at 221.300×g for 50 min. The resulting high speed supernatants were then transferred to fresh eppendorf tubes. Nine parts of supernatant were neutralized with 1 part 0.5 M Tris-HCl pH 6.8 and used to quantify Aβtotal and Aβ42.
(§5) To quantify the amount of Aβtotal and Aβ42 in the soluble fraction of the brain homogenates, Enzyme-Linked-Immunosorbent-Assays were used. Briefly, the standards (a dilution of synthetic Aβ1-40 and Aβ1-42, Bachem) were prepared in 1.5 mL Eppendorf tube in Ultraculture, with final concentrations ranging from 10000 to 0.3 pg/mL. The samples and standards were co-incubated with HRPO-labelled N-terminal antibody JRF/rAμ/2 for Aβ42 detection and with the biotinylated mid-domain antibody 4G8 for Aβtotal detection. 50 μl of conjugate/sample or conjugate/standards mixtures were then added to the antibody-coated plate (the capture antibodies selectively recognize the C-terminal end of Aβ42, antibody JRF/cAβ42/26, for Aβ42 detection and the N-terminus of AB, antibody JRF/rAβ/2, for Aβtotal detection). The plate was allowed to incubate overnight at 4° C. in order to allow formation of the antibody-amyloid complex. Following this incubation and subsequent wash steps the ELISA for Aβ42 quantification was finished by addition of Quanta Blu fluorogenic peroxidase substrate according to the manufacturer's instructions (Pierce Corp., Rockford, Ill.). A reading was performed after 10 to 15 min (excitation 320 nm/emission 420 nm).
For Aβtotal detection, a Streptavidine-Peroxidase-Conjugate was added, followed 60 min later by an additional wash step and addition of Quanta Blu fluorogenic peroxidase substrate according to the manufacturer's instructions (Pierce Corp., Rockford, Ill.). A reading was performed after 10 to 15 min (excitation 320 nm/emission 420 nm). […]

The subject of a further data set is Aβ42. Kind of data set: In vivo efficacy B-1a: brain soluble Aβ42 in non-transgenic rodents, ELISA. On the set-up: species or system mouse. The conditions noted are these: dose 30 mg/kg oral dosing, brain soluble fraction, untreated animals (Ctrl) set at 100; for response vs control in vivo at 30 mg/kg: Mus musculus, po, read-out: Aβ42 (% vs Ctrl)_Mean; for Aβ42 (% vs Ctrl)_Mean: 30 mg/kg.
From the text: as §1, §2, §3, §4, §5
In this model a Aβ42 lowering compared to untreated animals would be advantageous, in particular a Aβ42 lowering with at least 10%, more in particular a Aβ42 lowering with at least 20%.
The results are shown in Table 4 (dose 30 mg/kg oral dosing) (value for untreated animals as control (Ctrl) was set at 100): […]

[3] abbreviates: Homo sapiens, SKNBE2, SKNBE2 human neuroblastoma cells carrying hAPP 695 wild type.
Setting [4] is: SKNBE2 human neuroblastoma cells carrying hAPP 695 wild type.

As to `Cc1cn(-c2ccc3[nH]c(-c4nc5n(n4)CCCC5c4ccccc4C)cc3n2)cn1.Cl` (stereo not drawn) [Compound 5, 5,6,7,8-tetrahydro-2-[5-(4-methyl-1H-imidazol-1-yl)-1H-pyrrolo[3,2-b]pyridin-2-yl]-8-(2-methylphenyl)-[1,2,4]triazolo[1,5-a]pyridine], the melting point – broadly, the temperature, or range, at which the solid turns liquid – stood at 189.4 °C. The IC50 (as a rule, the point on the concentration scale where inhibition reaches its midpoint) in the data set with Aβtotal [1] (setting [3]) is above 10 µM. In the data set on Aβtotal [2], the response vs control in vivo at 30 mg/kg was 80%. Besides, the response vs control in vivo at 30 mg/kg in the data set on Aβ42 stood at 106%.

Molecule `Cc1ccccc1C1CCCn2nc(-c3cc4cc(C#N)ccc4[nH]3)nc21` (stereo not drawn) [Compound 12, 2-[5,6,7,8-tetrahydro-8-(2-methylphenyl)[1,2,4]triazolo[1,5-a]pyridin-2-yl]-1H-indole-5-carbonitrile] returned a melting point of 142.1 °C. This molecule also yielded an IC50 in the data set on Aβtotal [1] (setting [3]) above 10 µM. In the data set with Aβtotal [2], the “Aβtotal (% vs Ctrl)_Mean” value is reported as 91 % vs Ctrl. In addition, in the data set on Aβ42, the “Aβ42 (% vs Ctrl)_Mean” value was 94 % vs Ctrl.

`Cc1cc(-c2ccc3[nH]c(-c4nc5n(n4)CCCC5c4ccccc4C)cc3n2)ccn1` (stereo not drawn) [Compound 6, 5,6,7,8-tetrahydro-8-(2-methylphenyl)-2-[5-(2-methyl-4-pyridinyl)-1H-pyrrolo[3,2-b]pyridin-2-yl]-[1,2,4]triazolo[1,5-a]pyridine] came in with a melting point of 266.5 °C. In addition, in the data set with Aβtotal [1] (setting [3]), the IC50 is above 10 µM. Besides, in the data set on Aβtotal [2], the response vs control in vivo at 30 mg/kg stood at 87%. The response vs control in vivo at 30 mg/kg in the data set on Aβ42 came to 79%.

Take `COc1c(-c2cnn(C)c2)ccc2[nH]c(-c3cn4c(n3)C(c3ccc(F)cc3C)OCC4)cc12` (stereo not drawn) [Compound 96, 8-(4-fluoro-2-methylphenyl)-5,6-dihydro-2-[4-methoxy-5-(1-methyl-1H-pyrazol-4-yl)-1H-indol-2-yl]-8H-imidazo[2,1-c][1,4]oxazine]: the IC50 with Aβtotal [1] (setting [3]) is above 10 µM. Besides, the response vs control in vivo at 30 mg/kg with Aβtotal [2] was found to be 92%; in the data set on Aβ42, 55%.

In turn, `Cc1cc(F)ccc1C1CCCn2cc(-c3cc4cc(C#N)ccc4[nH]3)nc21` (stereo not drawn) [Compound 63, 2-[8-(4-fluoro-2-methylphenyl)-5,6,7,8-tetrahydroimidazo[1,2-a]pyridin-2-yl]-1H-indole-5-carbonitrile] came in with a half-inhibitory concentration (IC50) in the data set on Aβtotal [1] (setting [4]) above 10 µM. For the same molecule, the “Aβtotal (% vs Ctrl)_Mean” value with Aβtotal [2] was found to be 121 % vs Ctrl. In addition, the “Aβ42 (% vs Ctrl)_Mean” value in the data set on Aβ42 came to 121 % vs Ctrl.

Regarding `Cc1cn(-c2ccc3[nH]c(-c4nc5n(n4)CCCC5c4ccc(F)cc4C)nc3c2)cn1` (stereo not drawn) [Compound 176, 8-(4-fluoro-2-methylphenyl)-5,6,7,8-tetrahydro-2-[5-(4-methyl-1H-imidazol-1-yl)-1H-benzimidazol-2-yl]-[1,2,4]triazolo[1,5-a]pyridine], in the data set with Aβtotal [1] (setting [4]), the half-inhibitory concentration (IC50) is above 10 µM. Also, the values for the response vs control in vivo at 30 mg/kg in the data set on Aβtotal [2] and with Aβ42 were 101% and 93%, respectively.

With `COc1c(C#N)ccc2[nH]c(-c3nc4n(n3)CCOC4c3ccc(F)cc3C)cc12` (stereo not drawn) [Compound 111, 2-[8-(4-fluoro-2-methylphenyl)-5,6-dihydro-8H-[1,2,4]triazolo[5,1-c][1,4]oxazin-2-yl]-4-methoxy-1H-indole-5-carbonitrile], the IC50 in the data set on Aβtotal [1] (setting [3]) was above 10 µM. Also, the response vs control in vivo at 30 mg/kg worked out at 120% in the data set on Aβtotal [2] and 87% with Aβ42.

As for `Cc1ccccc1C1CCCn2nc(-c3cc4cc(C#N)ccc4[nH]3)nc21` (stereo not drawn) [Compound 13, 2-[5,6,7,8-tetrahydro-8-(2-methylphenyl)[1,2,4]triazolo[1,5-a]pyridin-2-yl]-1H-indole-5-carbonitrile], the IC50 in the data set with Aβtotal [1] (setting [4]) is above 10 µM. The response vs control in vivo at 30 mg/kg came to 80% with Aβtotal [2] and 79% with Aβ42.

For `COc1c(C#N)ccc2[nH]c(-c3nc4n(n3)CCOC4c3c(F)cccc3Cl)cc12` (single isomer, unassigned) [Compound 117, 2-[8-(2-chloro-6-fluorophenyl)-5,6-dihydro-8H-[1,2,4]triazolo[5,1-c][1,4]oxazin-2-yl]-4-methoxy-1H-indole-5-carbonitrile], the concentration for half-maximal inhibition (IC50) in the data set with Aβtotal [1] (setting [3]) was above 10 µM. Moreover, the response vs control in vivo at 30 mg/kg in the data set on Aβtotal [2] was found to be 103%; in the data set with Aβ42, 63%.

Turning to `COc1c(C#N)ccc2[nH]c(-c3nc4n(n3)CCOC4c3ccccc3C(F)(F)F)cc12` (stereo not drawn) [Compound 55, 2-[5,6-dihydro-8-[2-(trifluoromethyl)phenyl]-8H-[1,2,4]triazolo[5,1-c][1,4]oxazin-2-yl]-4-methoxy-1H-indole-5-carbonitrile], the IC50 in the data set with Aβtotal [1] (setting [3]) was above 10 µM. The figures for the response vs control in vivo at 30 mg/kg with Aβtotal [2] and in the data set with Aβ42 were 111% and 55%, respectively.

Turning to `COc1c(C#N)ccc2[nH]c(-c3cn4c(n3)C(c3ccc(F)cc3C)CCC4)cc12` (stereo not drawn) [Compound 74, 2-[8-(4-fluoro-2-methylphenyl)-5,6,7,8-tetrahydroimidazo[1,2-a]pyridin-2-yl]-4-methoxy-1H-indole-5-carbonitrile], the half-inhibitory concentration (IC50) in the data set on Aβtotal [1] (setting [3]) is above 10 µM. Besides, the response vs control in vivo at 30 mg/kg was determined as 85% with Aβtotal [2] and 49% with Aβ42.

`Cc1cc(F)ccc1C1CCCn2nc(-c3cc4nc(-c5cnn(C)c5)ccc4[nH]3)nc21` (stereo not drawn) [Compound 69, 8-(4-fluoro-2-methylphenyl)-5,6,7,8-tetrahydro-2-[5-(1-methyl-1H-pyrazol-4-yl)-1H-pyrrolo[3,2-b]pyridin-2-yl]-[1,2,4]triazolo[1,5-a]pyridine]: the IC50 with Aβtotal [1] (setting [4]) was above 10 µM. Moreover, the response vs control in vivo at 30 mg/kg in the data set on Aβtotal [2] was 122%; in the data set with Aβ42, 83%.

Regarding `Cc1cn(-c2ccc3[nH]c(-c4nc5n(n4)CCCC5c4ccc(F)cc4C)cc3n2)cn1` (stereo not drawn) [Compound 65, 8-(4-fluoro-2-methylphenyl)-5,6,7,8-tetrahydro-2-[5-(4-methyl-1H-imidazol-1-yl)-1H-pyrrolo[3,2-b]pyridin-2-yl]-[1,2,4]triazolo[1,5-a]pyridine], the IC50 in the data set with Aβtotal [1] (setting [3]) was found to be 7.24 µM. Moreover, the response vs control in vivo at 30 mg/kg was determined as 108% with Aβtotal [2] and 82% in the data set on Aβ42.

In the data set on Aβtotal [1] (setting [3]), `Cc1cn(-c2ccc3[nH]c(-c4nc5n(n4)CCOC5c4ccccc4C(F)(F)F)cc3c2)cn1` (stereo not drawn) [Compound 37, 5,6-dihydro-2-[5-(4-methyl-1H-imidazol-1-yl)-1H-indol-2-yl]-8-[2-(trifluoromethyl)phenyl]-8H-[1,2,4]triazolo[5,1-c][1,4]oxazine] registered a 50% inhibitory concentration (IC50) of 0.832 µM. Further, the response vs control in vivo at 30 mg/kg came out at 93% in the data set with Aβtotal [2] and 64% with Aβ42.

Consider `N#Cc1ccc2[nH]c(-c3cn4c(n3)C(c3ccccc3Cl)CCC4)cc2c1` (stereo not drawn) [Compound 16, 2-[8-(2-chlorophenyl)-5,6,7,8-tetrahydroimidazo[1,2-a]pyridin-2-yl]-1H-indole-5-carbonitrile], for which the half-inhibitory concentration (IC50) in the data set on Aβtotal [1] (setting [3]) was above 10 µM. For the same molecule, the response vs control in vivo at 30 mg/kg amounted to 95% in the data set with Aβtotal [2] and 74% with Aβ42.

The values are drawn from US9115143B2, “Substituted indole derivatives as gamma secretase modulators” (Janssen Pharmaceuticals, Inc., priority 2011, dated 2015).
